Earlier results on 6 compounds are cited in patent publication US20200095192A1, “BIODEGRADABLE DIETHANOLAMINE DERIVATIVE CHELATING AGENT AND PREPARATION PROCESS THEREOF” (PTT Global Chemical Public Company Limited, priority 2017, published 2020).

The conditions of data set [1]: zinc (Zn^2+); previous disclosed chelating agent; cited from earlier work.
The conditions of data set [2]: iron (Fe^3+); previous disclosed chelating agent; cited from earlier work.
For data set [3] the following is noted: mercury (Hg^2+); previous disclosed chelating agent; cited from earlier work.
The conditions of data set [4]: nickel (Ni^2+); previous disclosed chelating agent; cited from earlier work.
For data set [5] the following is noted: barium (Ba^2+); previous disclosed chelating agent; cited from earlier work.
For data set [6] the following is noted: magnesium (Mg^2+); previous disclosed chelating agent; cited from earlier work.
The conditions of data set [7]: strontium (Sr^2+); previous disclosed chelating agent; cited from earlier work.
For data set [8] the following is noted: cadmium (Cd^2+); previous disclosed chelating agent; cited from earlier work.
For data set [9] the following is noted: cobolt (Co^2+); previous disclosed chelating agent; cited from earlier work.
For data set [10] the following is noted: tin (Pb^2+); previous disclosed chelating agent; cited from earlier work.
For data set [11] the following is noted: aluminium (Al^3+); previous disclosed chelating agent; cited from earlier work.
For data set [12] the following is noted: iron (Fe^2+); previous disclosed chelating agent; cited from earlier work.
The conditions of data set [13]: copper (Cu2+); previous disclosed chelating agent; cited from earlier work.
For data set [14] the following is noted: calcium (Ca^2+); previous disclosed chelating agent; cited from earlier work.
For data set [15] the following is noted: manganese (Mn^2+); previous disclosed chelating agent; cited from earlier work.

Like-named read-outs stand apart in the source and are kept apart here.

For `O=C(O)CN(CCN(CC(=O)O)CC(=O)O)CC(=O)O` [EDTA, ethylenediamineteraacetic acid], the stability constant is on record as 16.5 in data set [1]; 25.1 in data set [2]; 21.5 in [3]; 18.4 in data set [4]; 7.9 in [5]; 8.8 in data set [6]. For the same compound, the stability constant in data set [7] is 8.7; in data set [8], 16.5; in [9], 16.5; in data set [10] it was 18.0; in [11] it was 16.4; in data set [12], 14.3. For the same compound, the values for the stability constant in [13], in data set [14] and in data set [15] were 18.8, 10.7 and 13.9, respectively.

As to `O=C(O)CN(CC(=O)O)CC(=O)O` [NTA, nitrilotriacetic acid], the stability constant is 10.7 in data set [1]; 15.9 in data set [2]; 14.3 in [3]; 11.5 in [4]; 4.8 in data set [5]; 5.5 in [6]. Moreover, the stability constant in data set [7] was 5.0; in data set [8], 9.8; in [9], 10.4; in data set [10], 11.5; in data set [11] it was 11.4; in data set [12], 8.9. Further, the stability constant in [13] is 13.0; in [14], 6.4; in data set [15] it was 7.5.

Take `O=C(O)CC[C@@H](C(=O)O)N(CC(=O)O)CC(=O)O` [GLDA, glutamic acid N,N-diacetic acid]: the stability constant is 10.0 in data set [1]; 11.7 in data set [2]; 14.3 in [3]; 10.9 in data set [4]; 3.5 in [5]; 5.2 in data set [6]. In addition, the stability constant in data set [7] is given as 4.1; in [8] it was 9.1; in data set [9] it was 10.0; in [10], 10.5; in data set [11], 12.2; in [12], 8.7. The values for the stability constant in [13], in [14] and in [15] were 13.1, 5.9 and 7.6, respectively.

For the compound `O=C(O)CC(OCCN(CCOC(CC(=O)O)C(=O)O)[C@@H](CC(=O)O)C(=O)O)C(=O)O` (stereo partly shown) [BCA6], the stability constant in data set [1] is 11.34; in data set [2], 17.3; in data set [3], 14.85; in data set [5] it was 6.1; in data set [6], 5.98; in [8] it was 11.09. In addition, the stability constant in data set [10] is reported as 10.82; in data set [11], 6.14; in data set [13] it was 13.08; in data set [14], 7.71; in [15], 9.28.

Regarding `O=C(O)CC(NC(CC(=O)O)C(=O)O)C(=O)O` (stereo not shown) [IDS, iminodisuccinic acid], the stability constant is given as 10.8 in data set [1]; 15.2 in data set [2]; 14.9 in data set [3]; 12.2 in data set [4]; 2.1 in data set [5]; 6.1 in data set [6]. The stability constant is on record as 8.4 in [8]; 10.5 in data set [9]; 11.0 in data set [10]; 14.1 in data set [11]; 8.2 in data set [12]; 13.1 in data set [13]. Moreover, the stability constant in data set [14] is 5.2; in data set [15], 7.7.

As to `O=C(O)CN(CCO)CC(=O)O` [EDG, ethanol diglycine], the stability constant is reported as 15.2 in data set [1]; 21.6 in data set [2]; 19.8 in data set [3]; 18.2 in [4]; 3.4 in [5]; 6.2 in data set [6]. Also, the stability constant in data set [7] is listed as 5.2; in [8], 7.4; in data set [9] it was 8.0; in data set [10], 13.6; in data set [11] it was 7.7; in data set [12] it was 13.4. In addition, the results for the stability constant in data set [13], in data set [14] and in [15] were 11.8, 4.7 and 10.0, respectively.
